Results as given in PubChem BioAssay (NCI).
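Method: 48-hour compound exposure of cells in 96-well plates, five concentrations, linear interpolation of endpoints. At the TGI there is no net growth.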

Columns and labels:
Test in all cases: inhibition of tumour cell growth, NCI panel, 48 h
[1] = system: MCF7 breast
[2] = system: SF-268 CNS
[3] = system: BT-549 breast
[4] = system: UACC-257 melanoma
[5] = system: MDA-N
[6] = system: T-47D breast
[7] = system: HOP-62 NSCLC
[8] = system: HCT-15 colon
[9] = system: XF 498 CNS
[10] = system: DLD-1 colon
[11] = system: KM20L2 colon
[12] = system: DMS 114 small cell lung
[13] = system: HOP-18 NSCLC
[14] = system: DMS 273 small cell lung
[15] = system: M19-MEL melanoma
[16] = system: SNB-78 CNS
[17] = system: LXFL 529 NSCLC

SMILES	TGI [1] [µM]	TGI [2] [µM]	TGI [3] [µM]	TGI [4] [µM]	TGI [5] [µM]	TGI [6] [µM]	TGI [7] [µM]	TGI [8] [µM]	TGI [9] [µM]	TGI [10] [µM]	TGI [11] [µM]	TGI [12] [µM]	TGI [13] [µM]	TGI [14] [µM]	TGI [15] [µM]	TGI [16] [µM]	TGI [17] [µM]
C=C1[C@H](OCC(C)C)[C@@H](OCC(C)C)[C@@H](O)C(C)(C)/C=C/[C@H](C)C(=O)[C@@]2(O)C[C@H](C)[C@H](O)[C@@H]2[C@H]1OCC(C)C	> 7.5	> 7.5	> 7.5	> 7.5	> 7.5	> 7.5	> 7.5	> 7.5									
Clc1cccc(Cl)c1C1SCc2nc3cc4ccccc4cc3n21 (centres undefined)	> 100	> 100	> 100	> 100	> 100	> 100	> 100	> 100									
CC1=C(N(C)C)C(=O)c2nc3n(c2C1=O)CCC3OC(N)=O (centres undefined)		34.6		27.6			31.6	28.9	38.8	29.9	38.6	30.6	32	29.3	3.12	40.9	
CC1=C(C(=O)OC23CC4CC(CC(C4)C2)C3)C(c2ccccc2OC(F)F)C(C(=O)OC23CC4CC(CC(C4)C2)C3)=C(C)N1 (centres undefined)	> 100	> 100	> 100	> 100	> 100	> 100	> 100	> 100									
O=c1c2cc([N+](=O)[O-])cnc2sn1-c1ccc(Oc2ccccc2)cc1	> 100	> 100	> 100	> 100	> 100	56.6	> 100	> 100									
CCC12CC[C@H](C#N)N3CCc4c(n(c5ccccc45)C(=O)C1)C32 (some centres undefined)		53.7		32.9			49.2	20.3	36.5	43.8	35			19	73.2	51.9	33.7
N#CC(c1ccc(Cl)cc1)c1cccc(Cl)n1 (centres undefined)		> 100		> 100			> 100		78.7	> 100	> 100				> 100	> 100	> 100
CC(C)(C)c1cc(N=NC(=S)NCc2ccccc2)cc(C(C)(C)C)c1O		> 100		> 100			> 100	> 100	> 100	> 100	> 100	> 100		> 100	> 100		> 100
COc1c(C(=O)O)cccc1-c1cccc(C(=O)NCCN(CCNC(=O)c2cccc(-c3cccc(C(=O)O)c3OC)c2OC)CCNC(=O)c2cccc(-c3cccc(C(=O)O)c3OC)c2OC)c1OC	> 100	> 100	> 100	> 100	23.8	> 100	> 100	> 100									
COC(=O)C1=C(C(=O)OC)C(C(=O)c2ccccc2)N2N=C(c3ccc(Cl)cc3)C=CC12 (centres undefined)	> 100	> 100	8.55	> 100	> 100	> 100	> 100	> 100									
C/C(=C\c1csc(C)n1)[C@@H]1C[C@@H]2O[C@]2(C)CCC[C@H](C)[C@H](O)[C@@H](C)C(=O)C(C)(C)[C@@H](O)CC(=O)O1 (tested in a mixture with another compound)	> 1	> 1	> 1	> 1	0.00205	> 1	> 1	> 1									
CCOC(=O)C1=C(C)C2C3C(=O)NC(=O)C3C1(C)C1C(=O)NC(=O)C21 (centres undefined)		> 100		> 100			> 100	> 100		> 100	> 100	> 100	> 100	> 100	> 100	> 100	> 100
BrC12C3C4C5C(C(C43)C13OCCO3)C52 (centres undefined)		> 100		> 100			> 100		> 100	> 100	> 100	> 100	> 100	> 100	> 100	> 100	> 100
Clc1ccc2c(Cl)ncnc2c1I		> 100		> 100			> 100	> 100	> 100	> 100	> 100	> 100		> 100	> 100		> 100
c1cc2[se][se]c3c4cccc5[se][se]c(c(c1)c23)c54		> 100		> 100			> 100		> 100	> 100	> 100	> 100	> 100	> 100	> 100	> 100	> 100
COc1ccc(OC)c2c(=O)cc(-c3ccccc3)[nH]c12	> 100	> 100	> 100	> 100	> 100	> 100	> 100	> 100									
O=C(CSc1nnc(-c2ccc(N=Cc3ccc(Cl)cc3)cc2)o1)Nc1ccccc1		> 100		> 100			> 100	> 100	> 100		> 100	> 100	> 100	70.6	> 100	> 100	> 100
CC(=O)/C(=C/N1C(=O)CC(=O)NC1=S)C(=O)Nc1ccccc1C	> 100	> 100	> 100	> 100	> 100	> 100	64.2	> 100									
CCC/C(Cl)=N\OC(=O)Nc1ccc(Br)cc1	19.7	46.2	62.6	27	27.3	25.2	42.6	19.9									
Cc1nc2c(s/c(=N\N)n2-c2ccccc2)c(=O)[nH]1		> 100		> 100			> 100	> 100	> 100	> 100	> 100	> 100		> 100	> 100	> 100	> 100
CC[N+](CC)(CC)Cc1cn(S(=O)(=O)c2ccccc2)c2ccccc12		> 100		> 100			> 100	> 100	> 100	> 100	> 100	> 100		> 100	> 100		
